Data as given in patent publication US11021486B2, “Coumarin-like cyclic compound as MEK inhibitor and use thereof” (CSTONE PHARMACEUTICALS, priority 2017, dated 2021).
Where two headings read alike, the source gives them in different places.

Legend:
[1] = test system: HT29 cells; test: Cell viability experiment (Cell Titer-Glo), HT29; type: cell-based, human
Method: (§1) Biological Test Method 2: Cell Viability Experiment
(§2) HT29 and A375 cells were plated in a 96-well cell culture plate at a density of 40,000 cells/well and 20,000 cells/well respectively, and the cells were cultured overnight. The compounds were serially diluted in a gradient of 1:3, the dilutions were added to the cell culture medium, and incubated with the cells in a 37° C. incubator for 3 days. The 96-well cell culture plate was taken from the incubator and equilibrated at room temperature for 30 minutes, then Cell Titer-Glo reagent (Promega Cat #G7573) was added at a ratio of 1:2, and the mixture was mixed thoroughly on a shaker for 2 minutes to promote cell lysis. The cell culture plate was incubated at room temperature for 10 minutes and then read on an Envision microplate reader (PerkinElmer). XLfit5 software was used for data analysis and mapping.

[2] = test system: A375 cells; test: Cell viability experiment (Cell Titer-Glo), A375; type: cell-based
Method: as §1, §2

[3] = biological target: T1, activated MEK1 (Homo sapiens, UniProt Q02750); test: MEK Lance Ultra experiment; type: biochemical; settings: 0.07 nM activated MEK1, 2 nM non-activated ERK, 50 μM ATP; read-out: MEK potency IC50
T1 construct: purchased Millipore 14-429
Method: Biological Test Method 1: MEK Lance Ultra Experiment Compounds were serially diluted three-fold to 10 concentrations, two duplicates were set. Final test concentrations of the compounds ranged from 10 μM to 0.51 nM. 0.07 nM activated MEK1 (Millipore #14-429) and 2 nM non-activated ERK (Millipore #14-515) were mixed with the compounds or DMSO, the mixture was incubated at 23° C. for 30 minutes. Then 50 nM ULight labeled MBP (PerkinElmer #TRF0109-M) and 50 μM ATP (Invitrogen #PV3227) were added to initiate the reaction, and the mixture was incubated at 23° C. for 90 minutes. After the reaction was stopped by adding EDTA at a final concentration of 15 mM, 2 nM Eu-labeled anti-phosphorylated antibody (PerkinElmer #TRF0201-M) was added and incubated for 1 hour. The fluorescence signal data (excitation band: 320 nm; emission band: 665 nM/615 nM) was determined by an Envision microplate reader (PerkinElmer). XLfit5 software was used for data analysis and mapping.

[4] = Homo sapiens, HT-29, 72 h, read-out: HT29 IC50, HT29 cells, 3 days incubation
[5] = Homo sapiens, A-375, 72 h, read-out: A375 IC50, A375 cells, 3 days incubation
[6] = Homo sapiens, HT-29, 72 h, HT29 cells, 3 days incubation, read-out: HT29 IC50
[7] = Homo sapiens, A-375, 72 h, A375 cells, 3 days incubation, read-out: A375 IC50
[8] = HT29 cells, 3 days incubation, read-out: HT29 IC50
[9] = A375 cells, 3 days incubation, read-out: A375 IC50

T1 sequence (Q02750 whole entry): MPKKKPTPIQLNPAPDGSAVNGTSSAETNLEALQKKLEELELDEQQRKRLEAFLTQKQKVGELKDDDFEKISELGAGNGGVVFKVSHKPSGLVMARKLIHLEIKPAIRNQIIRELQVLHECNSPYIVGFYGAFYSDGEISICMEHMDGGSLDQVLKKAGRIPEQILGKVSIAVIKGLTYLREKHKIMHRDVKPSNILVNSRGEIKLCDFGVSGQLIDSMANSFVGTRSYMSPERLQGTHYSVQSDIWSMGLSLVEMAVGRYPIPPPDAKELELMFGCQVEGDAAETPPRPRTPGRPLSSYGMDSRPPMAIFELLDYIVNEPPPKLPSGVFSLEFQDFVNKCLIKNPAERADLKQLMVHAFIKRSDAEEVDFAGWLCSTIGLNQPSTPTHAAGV

Row | Structure (SMILES) | IC50 [3] [nM] | IC50 [1, 6] [nM] | IC50 [2, 7] [nM] | further results
1 | Cc1c(CS(C)(=O)=O)cccc1-c1c(C)n(C2CC2)c(=O)c2c(Nc3ccc(I)cc3F)c(C)c(=O)oc12 [WX106] | 29.9 |  |  | IC50 [1, 4]: 5.89 nM; IC50 [2, 5]: 2.32 nM
2 | CC(=O)Nc1cccc(-c2c(C)n(C3CCOCC3)c(=O)c3c(Nc4ccc(I)cc4F)c(C)c(=O)oc23)c1 [WX059] | 32.4 | 923 | 1650 | 
3 | CC(=O)Nc1cccc(-c2c(C)n(CCN(C)C(C)=O)c(=O)c3c(Nc4ccc(I)cc4F)c(C)c(=O)oc23)c1 [WX056] | 54.1 | 2820 | 1550 | 
4 | COCCCn1c(C)c(-c2cccc(NC(C)=O)c2)c2oc(=O)c(C)c(Nc3ccc(I)cc3F)c2c1=O [WX062] | 68 | 745 | 631 | 
5 | COCCCn1c(C)cc2oc(=O)c(C)c(Nc3ccc(I)cc3F)c2c1=O [WX057] | 78 | 72.5 | 24.1 | 
6 | CC(=O)Nc1cccc(-c2c(C)n(C3CC3)c(=O)c3c(Nc4ccc(I)cc4F)c(C)c(=O)oc23)n1 [WX039] | 52 | 4.27 | 1.61 | 
7 | Cc1c(Nc2ccc(I)cc2F)c2c(=O)n(C3CC3)c(C)c(-c3cccc(CNS(N)(=O)=O)c3)c2oc1=O [WX092] | 178 | 8.96 | 7.54 | 
8 | Cc1c(Nc2ccc(I)cc2F)c2c(=O)n(C3CC3)c(C)cc2oc1=O [WX035] | 111 | 98.8 | 32.9 | 
9 | COCCNc1cccc(-c2c(C)n(C3CC3)c(=O)c3c(Nc4ccc(I)cc4F)c(C)c(=O)oc23)c1 [WX087] | 152 | 23.7 | 9.42 | 
10 | CC(=O)Nc1cccc(-c2c(C)n(C)c(=O)c3c(Nc4ccc(I)cc4F)c(C)c(=O)oc23)c1 [WX040] | 581 | 64.1 | 69.7 | 
11 | COCCn1c(C)cc2oc(=O)c(C)c(Nc3ccc(I)cc3F)c2c1=O [WX060] | 86.4 | 115 | 66.9 | 
12 | Cc1c(Nc2ccc(I)cc2F)c2c(=O)n(C3CC3)c(C)c(-c3cccc(NC(=O)NC(C)(C)C)c3)c2oc1=O [WX104] | 119 | 28.1 | 10.4 | 
13 | CC(=O)NCc1cccc(-c2c(C)n(C3CC3)c(=O)c3c(Nc4ccc(I)cc4F)c(C)c(=O)oc23)c1 [WX069] | 41.6 | 40.3 | 6.63 | 
14 | Cc1c(CS(C)(=O)=O)cccc1-c1c(C)n(C)c(=O)c2c(Nc3ccc(I)cc3F)c(C)c(=O)oc12 [WX109] | 119 | 90.7 | 29.2 | 
15 | CNCCn1c(C)c(-c2cccc(NC(C)=O)c2)c2oc(=O)c(C)c(Nc3ccc(I)cc3F)c2c1=O [WX054] | 81.5 | 334 | 484 | 
16 | Cc1c(Nc2ccc(I)cc2F)c2c(=O)n(C3CC3)c(C)c(-c3cccc(C(N)=O)c3)c2oc1=O [WX112] | 52.9 | 20.3 | 6.04 | 
17 | Cc1[nH]c(=O)c2c(Nc3ccc(I)cc3F)c(C)c(=O)oc2c1-c1cccc(NS(C)(=O)=O)c1C (single isomer, unassigned) [WX118] | 32.7 |  |  | IC50 [1, 8]: 1.76 nM; IC50 [2, 9]: 0.41 nM
18 | CC(=O)Nc1cncc(-c2c(C)n(C3CC3)c(=O)c3c(Nc4ccc(I)cc4F)c(C)c(=O)oc23)n1 [WX115] | 40.3 | 15.7 | 5.09 | 
19 | Cc1[nH]c(=O)c2c(Nc3ccc(I)cc3F)c(C)c(=O)oc2c1-c1cccc(NS(C)(=O)=O)c1C (single isomer, unassigned) [WX119] | 18.2 |  |  | IC50 [1, 8]: 19.3 nM; IC50 [2, 9]: 5.85 nM
20 | COC(=O)Nc1cccc(-c2c(C)n(C3CC3)c(=O)c3c(Nc4ccc(I)cc4F)c(C)c(=O)oc23)c1 [WX094] | 45.2 | 18.9 | 5.47 | 
21 | CC(=O)Nc1ccc(F)c(-c2c(C)n(C3CC3)c(=O)c3c(Nc4ccc(I)cc4F)c(C)c(=O)oc23)c1 [WX048] | 581 | 101 | 52.6 | 
22 | CC(=O)Nc1cccc(-c2c(C)[nH]c(=O)c3c(Nc4ccc(I)cc4F)c(C)c(=O)oc23)c1 [WX049] | 67 | 7.4 | 3.08 | 

Row | Structure (SMILES) | IC50 [3] [nM] | IC50 [1, 6] [nM] | IC50 [2, 7] [nM] | further results
23 | Cc1c(Nc2ccc(I)cc2F)c2c(=O)n(C3CC3)c(C)c(-c3cccc(CNS(C)(=O)=O)c3)c2oc1=O [WX088] | 45.4 | 4.59 | 2.13 | 
24 | CNC(=O)Nc1cccc(-c2c(C)n(C3CC3)c(=O)c3c(Nc4ccc(I)cc4F)c(C)c(=O)oc23)c1 [WX099] | 49.1 | 12.4 | 4.72 | 
25 | CNCc1cccc(-c2c(C)n(C3CC3)c(=O)c3c(Nc4ccc(I)cc4F)c(C)c(=O)oc23)c1 [WX097] | 29.5 | 105 | 17.2 | 
26 | Cc1c(Nc2ccc(I)cc2F)c2c(=O)n(CC(O)CO)c(C)cc2oc1=O (stereo not drawn) [WX053] | 92.8 | 9.19 | 3.27 | 
27 | CCS(=O)(=O)Nc1cccc(-c2c(C)n(C3CC3)c(=O)c3c(Nc4ccc(I)cc4F)c(C)c(=O)oc23)c1 [WX082] | 97.4 | 3.93 | 1.75 | 
28 | Cc1c(Nc2ccc(I)cc2F)c2c(=O)n(C3CC3)c(C)c(-c3cccc(NS(=O)(=O)C(C)(C)C)c3)c2oc1=O [WX095] | 48.6 | 1.77 | 0.79 | 
29 | Cc1c(Nc2ccc(I)cc2F)c2c(=O)n(C3CC3)c(C)c(-c3cccc(NC(N)=O)c3)c2oc1=O [WX103] | 48.9 | 20.3 | 6.58 | 
30 | Cc1c(Nc2ccc(I)cc2F)c2c(=O)n(C3CC3)c(C)c(-c3cccc(NCCO)c3)c2oc1=O [WX093] | 110 | 23.4 | 8.8 | 
31 | Cc1c(Nc2ccc(I)cc2F)c2c(=O)n(C3CC3)c(C)c(-c3cccc(NS(C)(=O)=O)c3Cl)c2oc1=O (single isomer, unassigned) [WX116] | 34.5 |  |  | IC50 ([1]; read-out: HT29 IC50, HT29 cells, 3 days incubation): 0.82 nM; IC50 ([2]; read-out: A375 IC50, A375 cells, 3 days incubation): 0.39 nM
32 | Cc1c(Nc2ccc(I)cc2F)c2c(=O)n(C3CC3)c(C)c(-c3cccc(N(S(C)(=O)=O)S(C)(=O)=O)c3)c2oc1=O [WX067] | 199 | 75.3 | 25.1 | 
33 | Cc1c(Nc2ccc(I)cc2F)c2c(=O)n(C3CC3)c(C)c(-c3cccc(NC(=O)N4CCOCC4)c3)c2oc1=O [WX085] | 118 | 9.34 | 4.65 | 
34 | Cc1ccccc1-c1c(C)n(C2CC2)c(=O)c2c(Nc3ccc(I)cc3F)c(C)c(=O)oc12 [WX111] | 14.4 | 14.9 | 3.56 | 
35 | COCCn1c(C)c(-c2cccc(NC(C)=O)c2)c2oc(=O)c(C)c(Nc3ccc(I)cc3F)c2c1=O [WX061] | 57.5 | 446 | 442 | 
36 | CC(=O)Nc1cccc(-c2c(C)n(C3CC3)c(=O)c3c(Nc4ccc(I)cc4F)c(C)c(=O)oc23)c1C [WX096] | 8.73 |  |  | IC50 [1, 4]: 10.3 nM; IC50 [2, 5]: 2.47 nM
37 | Cc1c(Nc2ccc(I)cc2F)c2c(=O)n(C3CC3)c(C)c(-c3ccnc(N)c3)c2oc1=O [WX079] | 35.3 | 5.52 | 3.23 | 
38 | Cc1c(Nc2ccc(I)cc2F)c2c(=O)n(C3CC3)c(C)c(-c3cccc(CS(=O)(=O)CCO)c3)c2oc1=O [WX100] | 114 | 6.84 | 2.11 | 
39 | COC(OC)C(=O)Nc1cccc(-c2c(C)n(C3CC3)c(=O)c3c(Nc4ccc(I)cc4F)c(C)c(=O)oc23)c1 [WX081] | 105 | 13 | 5.26 | 
40 | CC(=O)Nc1cccc(Cc2c(C)n(C3CC3)c(=O)c3c(Nc4ccc(I)cc4F)c(C)c(=O)oc23)c1 [WX102] | 12.3 | 2.05 | 0.37 | 
41 | Cc1c(Nc2ccc(I)cc2F)c2c(=O)n(C3CC3)c(C)c(Cc3cccc(N)c3)c2oc1=O [WX101] | 17.4 | 12.6 | 1.76 | 
42 | CC(=O)Nc1cccc(-c2c(C)n(CC(O)CO)c(=O)c3c(Nc4ccc(I)cc4F)c(C)c(=O)oc23)c1 (stereo not drawn) [WX058] | 83 | 102 | 91.1 | 
43 | Cc1c(Nc2ccc(I)cc2F)c2c(=O)n(C3CC3)c(C)c(-c3cccc(NS(=O)(=O)C4CC4)c3)c2oc1=O [WX089] | 61.1 | 1.32 | 0.47 | 
44 | Cc1c(CS(=O)(=O)C2CC2)cccc1-c1c(C)n(C2CC2)c(=O)c2c(Nc3ccc(I)cc3F)c(C)c(=O)oc12 [WX108] | 29.6 |  |  | IC50 [1, 4]: 13.1 nM; IC50 [2, 5]: 2.3 nM
